Data published in PMC8154566, “Scaffold-Hopping Strategy on a Series of Proteasome Inhibitors Led to a Preclinical Candidate for the Treatment of Visceral Leishmaniasis” (Journal of Medicinal Chemistry, 2021).
Converted amounts (≈) assume the structure as drawn. Read-outs that look alike come from different tables or passages of the source.

Legend:
THP-1 cells = experiment: THP-1 host cell read-out of the INMAC assay; type: cell-based; settings: Homo sapiens
Experimental: (§1) Intramacrophage L. donovani Assay. This assay was conducted as previously described, except for […]

[1] = Kinetic aqueous solubility by CLND; type: physicochemical
Experimental: We had successfully used these criteria in the hit to lead stage to identify compounds for in vivo proof-of-concept studies in another program, which subsequently led to the identification of preclinical candidate DDD853651/GSK3186899 active against CRK12.[7] […] A pharmacokinetic (PK) study was thus performed, dosed at 10 mg/kg po and 3 mg/kg iv. […] With the limited knowledge of the PK/PD drivers for the treatment of VL, we considered this to be a suitable profile for the progression of 4 into a previously reported mouse efficacy model of VL,[6],[7],[17],[18] where it was dosed twice daily at 50 mg/kg ip in order to further maximize exposure and give the best chance of achieving proof-of-concept.
(§2) Intramacrophage L. donovani Assay. This assay was conducted as previously described, except for compound exposure time, which was 96 h instead of 72 h.4
(§3) Intrinsic Clearance. This assay was conducted as previously described.5 Aqueous Solubility. This assay was conducted as previously described.6
(§4) FaSSIF Solublity. This assay was conducted as previously described.5,7
(§5) In vivo Mouse Efficacy Studies. In vivo studies were carried out as previously described, with minor modifications.7 Briefly: Control drug used was Miltefosine (30 mg/kg orally, twice daily for 5 days), vehicle used was 10% (v/v) dimethyl sulfoxide (DMSO), 40% polyethylene glycol 400, and 50% deionized water (10 Ml/kg orally, twice daily for 5 days) and mice were treated with test compound intraperitoneally (50 mg/kg twice daily for 5 days). 5
(§6) All regulated procedures on living animals were carried out under the authority of a project license issued by the Home Office under the Animals (Scientific Procedures) Act 1986, as amended in 2012 (and in compliance with EU Directive EU/2010/63). Infected animals had access to food and water ad libitum and were housed under a 12 hour light/dark photoperiod. Animals used in these experiments were female NMRI and Balb/c mice (Harlan, UK).
(§7) Test compound DDD01008714 was dosed orally (P.O.) at 10 mg free base/kg (dose volume 10 mL/kg; dose vehicle: 10% (vol/vol) dimethyl sulfoxide (DMSO), 40% polyethylene glycol 400 (PEG400) and 50% deionized water) to female NMRI mice (n = 3) or intravenously (I.V.) at 3 mg free base/kg (dose volume 5 mL/kg; dose vehicle: 10% (vol/vol) dimethyl sulfoxide (DMSO) and 90% Saline) to female Balb/c mice (n = 3). Blood samples (10 μL) where taken from the tail vein of […]

L. donovani amastigotes = experiment: INMAC assay: intramacrophage L. donovani in differentiated THP-1 cells; type: cell-based, Leishmania donovani; settings: for loss of potency: INMAC, relative to compound 4; for IC50 / EC50: Leishmania donovani; for IC50: THP-1, read-out: LdInMac pIC50 (converted); for EC50: THP-1
Experimental: as §1

[2] = FaSSIF (fasted state simulated intestinal fluid) solubility; type: physicochemical
Experimental: as §2, §3, §4, §5, §6, §7

[3] = Mouse liver microsomal intrinsic clearance; type: in vitro ADME; settings: for Mouse CLi: mouse liver microsomes; for Cli (mouse, ml/min/g): supplementary csv
Experimental: as §2, §3, §4, §5, §6, §7

[4] = THP-1, Table 2, read-out: THP-1 (pEC50) (converted)
[5] = THP-1, supplementary csv, read-out: THP1 pIC50 (converted)
[6] = Table 2, kinetic, CLND, read-out: Aq. solubility
[7] = supplementary csv, read-out: Aqueous Solubility
[8] = Table 2, at least three replicates, SD ≤0.4, read-out: INMAC (pEC50) (converted)
[9] = THP-1, Table 5, read-out: THP-1 pEC50 (converted)
[10] = Table 5, kinetic, CLND, read-out: Aq. solubility
[11] = Table 5, at least three replicates, SD ≤0.4, read-out: INMAC pEC50 (converted)
[12] = THP-1, read-out: THP1 pIC50 (converted)

Compound | EC50 (THP-1 cells; [4]) [µM] | IC50 (THP-1 cells; [5]) [µM] | solubility [1, 6] [µM] | solubility [1, 7] [µM] | loss of potency (L. donovani amastigotes) [fold] | IC50 (L. donovani amastigotes) [µM] | EC50 (L. donovani amastigotes; [8]) [µM] | solubility at 4 h ([2]; pH 6.5, Table 2) [µM] | solubility ([2]; supplementary csv) [µM] | Mouse CLi ([3]; Table 2) [mL/min/g] | Cli (mouse, ml/min/g) [3] [mL/min/g] | solubility ([2]; Table 2) [µM] | EC50 (THP-1 cells; [9]) [µM] | solubility [1, 10] [µM] | EC50 (L. donovani amastigotes; [11]) [µM] | INMAC pEC50 (L. donovani amastigotes; Table 5, at least three replicates, SD ≤0.4) | solubility at 4 h ([2]; pH 6.5, Table 5) [µM] | Mouse CLi ([3]; Table 5) [mL/min/g] | IC50 (THP-1 cells; [12]) [µM]
O=C(Nc1cccc(-c2cn3cc(N4CCOCC4)cnc3n2)n1)N1CCCC1 [Compound 9, N-(6-(6-Morpholinoimidazo[1,2-a]pyrimidin-2-yl)pyridin-2-yl)pyrrolidine-1-carboxamide] | > 50.1 | > 50.1 | ≥ 476 | ≥ 480 | > 10 | > 50.1 | > 50.1 | 80 (≈ 31.5 µg/mL) | 81 (≈ 31.9 µg/mL) | <0.5 | <0.5 | – | – | – | – | – | – | – | –
O=C(Nc1cc(-c2cn3cc(N4CCOCC4)cnc3n2)ncn1)N1CCCC1 [Compound 10, N-(6-(6-Morpholinoimidazo[1,2-a]pyrimidin-2-yl)pyrimidin-4-yl)pyrrolidine-1-carboxamide] | > 50.1 | > 50.1 | ≥ 435 | ≥ 440 | > 10 | > 50.1 | > 50.1 | 2050 (≈ 807 µg/mL) | > 1000 | <0.5 | <0.5 | > 100 | – | – | – | – | – | – | –
O=C(Nc1cncc(-c2cn3cc(N4CCOCC4)cnc3n2)n1)N1CCCC1 [Compound 11, N-(6-(6-Morpholinoimidazo[1,2-a]pyrimidin-2-yl)pyrazin-2-yl)pyrrolidine-1-carboxamide] | > 50.1 | > 50.1 | ≥ 396 | ≥ 400 | > 10 | > 50.1 | > 50.1 | 213 (≈ 84 µg/mL) | 210 (≈ 82.8 µg/mL) | <0.5 | <0.5 | > 100 | – | – | – | – | – | – | –
O=C(Nc1nccc(-c2cn3cc(N4CCOCC4)cnc3n2)n1)N1CCCC1 [Compound 12, N-(4-(6-Morpholinoimidazo[1,2-a]pyrimidin-2-yl)pyrimidin-2-yl)pyrrolidine-1-carboxamide] | > 50.1 | > 50.1 | ≥ 470 | – | > 10 | > 50.1 | > 50.1 | – | > 1000 | <0.5 | <0.5 | – | – | – | – | – | – | – | –
O=C(Nc1cnnc(-c2cn3cc(N4CCOCC4)cnc3n2)c1)N1CCCC1 [Compound 13, N-(6-(6-Morpholinoimidazo[1,2-a]pyrimidin-2-yl)pyridazin-4-yl)pyrrolidine-1-carboxamide] | > 50.1 | > 50.1 | 355 (≈ 140 µg/mL) | 360 (≈ 142 µg/mL) | > 10 | > 50.1 | > 50.1 | 286 (≈ 113 µg/mL) | 290 (≈ 114 µg/mL) | <0.5 | <0.5 | > 100 | – | – | – | – | – | – | –
O=C(Nc1ccc(F)c(-c2cn3ncc(N4CCOCC4)cc3n2)c1)N1CCCC1 [Compound 15, N-[4-Fluoro-3-(7-morpholinoimidazo[1,2-b]pyridazin-2-yl)phenyl]pyrrolidine-1-carboxamide] | – | > 50.1 | – | – | – | > 50.1 | – | – | – | – | 2 | – | > 50.1 | 58 (≈ 23.8 µg/mL) | > 50.1 | inactive | 22 (≈ 9.03 µg/mL) | 2.0 | –
O=C(Nc1ccc(F)c(-c2cc3cc(N4CCOCC4)cnc3o2)c1)N1CCCC1 [Compound 20, N-(4-Fluoro-3-(5-morpholinofuro[2,3-b]pyridin-2-yl)phenyl)pyrrolidine-1-carboxamide] | – | > 50.1 | – | – | – | – | – | – | – | – | 4 | – | > 50.1 | 25 (≈ 10.3 µg/mL) | 0.0501 | – | 7 (≈ 2.87 µg/mL) | 4.0 | –
O=C(Nc1ccc(F)c(-c2cc3nc(N4CCOCC4)cnc3o2)c1)N1CCCC1 [Compound 21, N-[4-Fluoro-3-(2-morpholinofuro[2,3-b]pyrazin-6-yl)phenyl]pyrrolidine-1-carboxamide] | – | > 50.1 | – | – | – | – | – | – | – | – | 2.8 | – | > 50.1 | 70 (≈ 28.8 µg/mL) | 0.158 | – | 15 (≈ 6.17 µg/mL) | 2.8 | –
O=C(Nc1ccc(F)c(-c2cn3nc(N4CCOCC4)cnc3n2)c1)N1CCCC1 [Compound 23, N-(4-Fluoro-3-(2-morpholinoimidazo[1,2-b][1,2,4]triazin-6-yl)phenyl)pyrrolidine-1-carboxamide] | – | – | – | 130 (≈ 53.5 µg/mL) | – | – | – | – | 140 (≈ 57.6 µg/mL) | – | 0.9 | – | > 50.1 | 126 (≈ 51.8 µg/mL) | 0.398 | – | – | 0.9 | > 50.1
O=C(Nc1ccc(F)c(-c2nc3ncc(N4CCOCC4)cn3n2)c1)N1CCCC1 [Compound 25, N-(4-Fluoro-3-(6-morpholino-[1,2,4]triazolo[1,5-a]pyrimidin-2-yl)phenyl)pyrrolidine-1-carboxamide] | – | – | – | 400 (≈ 165 µg/mL) | – | – | – | – | 73 (≈ 30 µg/mL) | – | 0.5 | – | > 50.1 | 354 (≈ 146 µg/mL) | 0.631 | – | 74 (≈ 30.4 µg/mL) | <0.5 | > 50.1
O=C(Nc1ccc(F)c(-c2cc3cc(N4CCOCC4)cnn3n2)c1)N1CCCC1 [Compound 26, N-(4-Fluoro-3-(5-morpholinopyrazolo[1,5-b]pyridazin-2-yl)phenyl)pyrrolidine-1-carboxamide] | – | > 50.1 | – | – | – | – | – | – | – | – | 1.7 | – | > 50.1 | 51 (≈ 20.9 µg/mL) | 0.158 | – | 12 (≈ 4.93 µg/mL) | 1.7 | –
